Assay results taken from patent US6916793B2, “Selenium-containing pro-drugs for cancer therapy” (priority 1999, dated 2005).
Where two headings read alike, the source gives them in different places.

What was measured:
A549 cells [1] = experiment: Combined effect of SeMet with BCNU, cell survival; format: cell-based, human; settings: A549 transfected with rAd-MET, 20% FBS
Procedure: A549 cells that had been transfected with rAd-MET were cultured in RPMI with 20% FBS with and without 8 μM SeMet. In each case, duplicate samples were cultured without BCNU and in the presence of 300 μM BCNU. Cell survival was determined […]. With no treatment, 100% of the cells survived; in the presence of SeMet alone, 80% of the cells survived. In the absence of SeMet, but in the presence of BCNU, 55% cell survival was obtained; in the presence of 8 μM SeMet and 300 μM BCNU, less than 10% of the cells survived. Thus, SeMet dramatically enhances the effect of BCNU.

keratinocytes = settings: at the concentrations studied; cited from earlier work
A549 cells [2] = experiment: Combined effect of SeMet with doxorubicin, cell survival; format: cell-based, human; settings: A549 transfected with rAd-MET, 10% FBS
Procedure: In a similar experiment, A549 cells that had been transfected with rAd-MET were cultured in RPMI with 10% FBS in the presence and absence of 4 μM SeMet and with and without 0.4 μM doxorubicin. In the presence of doxorubicin alone, a 75% cell survival rate was obtained; when SeMet was present alone, a 60% cell survival rate was obtained.

OVCAR-8 = experiment: MTT assay, serial dilutions of SeMet on transduced cells; format: cell-based, human; settings: for IC50: Homo sapiens
Procedure: (§1) Cells (4×10^3) of various tumor lines were seeded onto 96-well plates. After 24 hours, serial dilutions of the methioninase expressing vector (rAd-MET) or a control vector containing no methioninase encoding nucleotide sequence (rAd) were added to the wells with and without 20 μM of selenomethionine (SeMet) (20 μM). After incubating the plates for three (3) days, the medium was replaced with 0.5 mg/ml MTT for two (2) hours and analyzed using a microplate reader (BioRad), in a standard MTT assay. Results were recorded as percentage of surviving cells.
(§2) The cell lines were also evaluated for their response to varying concentrations of SeMet. In these protocols, the cells were seeded as above into 96-well plates and infected with 4×10^5 pfu of rAd-MET or control rAd. After 24 hours, serial dilutions of SeMet were added and three (3) days later cytotoxicity was evaluated with the MTT assay as described in Example 2. The results are shown for OVCAR-8 cells in FIG. 6.

A549 = experiment: as above; format: cell-based; settings: Homo sapiens
Procedure: as §1, §2

BxPC-3 = experiment: as above; format: cell-based; settings: Homo sapiens
Procedure: as §1, §2

EKVX = experiment: as above; format: cell-based; settings: Homo sapiens
Procedure: as §1, §2

Hep-2 = experiment: as above; format: cell-based; settings: Homo sapiens
Procedure: as §1, §2

MIA PaCa-2 = experiment: as above; format: cell-based; settings: Homo sapiens
Procedure: as §1, §2

[3] = test system: A549 human lung cancer cells; experiment: Combined variation of rAd-MET and SeMet, percentage of surviving cells; format: cell-based
Procedure: The experiments described in Examples 2 and 3 were performed on A549 human lung cancer cells using varying concentrations of SeMet from 0-40 μM and of virus rAd-MET titer of 0-8×10^5 pfu using rAd as a control. Percentage of surviving cells was again used as an index of efficacy.

A549 cells [4] = experiment: ROS generation, lucigenin-dependent chemiluminescence; format: cell-based, human; settings: for chemiluminescence relative to control: 30 minutes
Procedure: It is believed that selenium cytotoxicity is mediated by generation of reactive oxygen species (ROS). This can be measured by standard techniques which employ lucigenin-dependent chemiluminescence as described by Yan, L., et al., Biochem Pharmacol (1993) 45:429-437, cited above.
A549 cells were transduced with rAd-MET at MOI of 50, 24 hours before measurement. The cells (1×10^6) were incubated in 1 ml RPMI in the presence of SeMet with or without 10 units of superoxide dismutase (SOD) for 30 minutes. Lucigenin (50 μg) was added to the cell suspension just prior to measurement and integrated chemiluminescence was measured for 10 seconds, three times, using a TD21 luminometer (Turner Designs).

human tumor cell lines = experiment: MTT assay, summary statements over all tumor cell lines; format: cell-based; settings: virtually all cell lines
Procedure: as §1
The cell lines tested were human cancer cell lines OVCAR-8 (ovarian cancer), A549 and EKVX (lung cancer), Hep-2 (head and neck cancer), MIA PaCa-2 and BxPC-3 (pancreatic cancer), human rhabdomyosarcoma cell line A204 and human prostate cell line PC-3. The results with respect to the OVCAR-8 cell line and cell lines A204, and PC-3 are shown in FIGS. 2, 3 and 4 in X/Y graphs; FIG. 5 is a bar graph of the results with respect to the A549 cell line.
as §2, with “The results are shown for OVCAR-8 cells in FIG. 6.” left out

With `O=NN(CCCl)C(=O)NCCCl` [BCNU, reference compound] the cell survival (A549 cells [1]; 300 μM BCNU, no SeMet) was 55%.
In the case of `N[C@@H](C[Se][Se]C[C@H](N)C(=O)O)C(=O)O` [selenocystine], the cytotoxicity in keratinocytes (keratinocytes) is listed as “cytotoxic” and the “induction of apoptosis in keratinocytes” value (keratinocytes) is listed as “induced apoptosis”.
`COc1cccc2c1C(=O)c1c(O)c3c(c(O)c1C2=O)C[C@@](O)(C(=O)CO)C[C@@H]3O[C@H]1C[C@H](N)[C@H](O)[C@H](C)O1` [doxorubicin, reference compound] gave a cell survival rate (A549 cells [2]; 0.4 μM doxorubicin alone) of 75%.
With `C[Se]CC[C@H](N)C(=O)O` [SeMet, selenomethionine] the IC50 (OVCAR-8; OVCAR-8, read-out: SeMet IC50 (μM)) was 224 µM, the IC50 (OVCAR-8; OVCAR-8, read-out: SeMet IC50 (μM), OVCAR-8 transduced with Control-rAd 4×10^5 pfu) was 170 µM and the IC50 (OVCAR-8; OVCAR-8, read-out: SeMet IC50 (μM), OVCAR-8 transduced with rAd-MET 4×10^5 pfu) was 0.59 µM. The “lowering of IC50 for SeMet in the presence of rAd-MET as compared to control rAd” value (OVCAR-8; OVCAR-8 cells, FIG. 6) was “lowered over a thousandfold”, the IC50 (A549; A549, read-out: SeMet IC50 (μM)) was 486 µM and the IC50 (A549; A549, read-out: SeMet IC50 (μM), A549 transduced with Control-rAd 4×10^5 pfu) was 327 µM. It also gave an IC50 (A549; A549, read-out: SeMet IC50 (μM), A549 transduced with rAd-MET 4×10^5 pfu) of 0.5 µM, an IC50 (BxPC-3; BXPC-3, read-out: SeMet IC50 (μM)) of 312 µM and an IC50 (BxPC-3; BXPC-3, read-out: SeMet IC50 (μM), BxPC-3 transduced with Control-rAd 4×10^5 pfu) of 223 µM. For the same molecule, the IC50 (BxPC-3; BXPC-3, read-out: SeMet IC50 (μM), BxPC-3 transduced with rAd-MET 4×10^5 pfu) was 3.38 µM, the IC50 (EKVX; read-out: SeMet IC50 (μM)) was 1360 µM and the IC50 (EKVX; read-out: SeMet IC50 (μM), EKVX transduced with Control-rAd 4×10^5 pfu) was 686 µM. For the same molecule, the IC50 (EKVX; read-out: SeMet IC50 (μM), EKVX transduced with rAd-MET 4×10^5 pfu) was 1.66 µM, the IC50 (Hep-2; HEp-2, read-out: SeMet IC50 (μM)) was 411 µM and the IC50 (Hep-2; HEp-2, read-out: SeMet IC50 (μM), Hep-2 transduced with Control-rAd 4×10^5 pfu) was 387 µM. It also gave an IC50 (Hep-2; HEp-2, read-out: SeMet IC50 (μM), Hep-2 transduced with rAd-MET 4×10^5 pfu) of 1.66 µM, an IC50 (MIA PaCa-2; MIA PaCa-2, read-out: SeMet IC50 (μM)) of 422 µM and an IC50 (MIA PaCa-2; MIA PaCa-2, read-out: SeMet IC50 (μM), MIA PaCa-2 transduced with Control-rAd 4×10^5 pfu) of 338 µM. The IC50 (MIA PaCa-2; MIA PaCa-2, read-out: SeMet IC50 (μM), MIA PaCa-2 transduced with rAd-MET 4×10^5 pfu) was 3.86 µM, the “toxicity of selenomethionine itself” value ([3]; A549, control vector, SeMet 20-40 μM, FIG. 7) was “slight toxicity” and the cells survived ([3]; A549, rAd-MET 4×10^5, SeMet 2.5 μM) was 50%. For the same molecule, the cell survival ([3]; A549, rAd-MET 8×10^5 pfu, SeMet 5 μM or more) was “substantially no cells survived”, the viability ([3]; A549, rAd-MET 5,000 pfu, SeMet 20-40 μM, FIG. 8) was “drastically reduced viability” and the “effect of superoxide dismutase on SeMet-dependent chemiluminescence” value (A549 cells [4]; 10 units SOD, 160 μM and 40 μM SeMet) was “inhibited by SOD”. For the same molecule, the “chemiluminescence relative to control” value (A549 cells [4]; A549 transduced with rAd-MET MOI 50, 40 μM SeMet) was 20 times, the “chemiluminescence relative to control” value (A549 cells [4]; A549 transduced with rAd-MET MOI 50, 160 μM SeMet) was “over 100 times” and the cell survival (A549 cells [1]; 8 μM SeMet alone) was 80%. For the same molecule, the cell survival rate (A549 cells [2]; 4 μM SeMet alone) was 60%, the “change in IC50 for SeMet in the presence of rAd-MET” value (human tumor cell lines) was “dramatic decrease in IC50” and the cytotoxicity in keratinocytes (keratinocytes) was “not cytotoxic”. For the same molecule, the “induction of apoptosis in keratinocytes” value (keratinocytes) was “did not induce cellular apoptosis”.
For `NCC[Se][Se]CCN` [selenocystamine], the cytotoxicity in keratinocytes (keratinocytes) is listed as “cytotoxic” and the “induction of apoptosis in keratinocytes” value (keratinocytes) is listed as “induced apoptosis”.
For `O=[Se](O)O` [selenite], the cytotoxicity in keratinocytes (keratinocytes) is listed as “cytotoxic” and the “induction of apoptosis in keratinocytes” value (keratinocytes) is listed as “induced apoptosis”.
